Laboratory results reported in patent US12077503B2, “Substituted cyclic amides and their use as herbicides” (FMC CORPORATION, priority 2015, dated 2024).

Legend:
Type in all cases: in vivo
[1] = test system: Galium (catchweed bedstraw, Galium aparine); experiment: Test A postemergence; settings: Galium, post-emergence, 240 h
Outline: (§1)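 Preemergence directed soil spray on seeded pots, or postemergence application to plants 2–10 cm, one- to two-leaf. Solvent mixture non-phytotoxic, with surfactant. Scored ~10 d later, visually, 0–100 vs untreated.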

[2] = test system: giant foxtail (Setaria faberii); experiment: Test A postemergence; settings: Setaria faberi, post-emergence, 240 h
Outline: as §1

[3] = test system: ryegrass, Italian (Italian ryegrass, Lolium multiflorum); experiment: Test A postemergence; settings: Lolium multiflorum, post-emergence, 240 h
Outline: as §1

[4] = test system: wheat (Triticum aestivum); experiment: Test A postemergence; settings: Triticum aestivum, post-emergence, 240 h
Outline: as §1

[5] = test system: ragweed (common ragweed, Ambrosia elatior); experiment: Test A postemergence; settings: Ambrosia artemisiifolia, post-emergence, 240 h
Outline: as §1

corn (Zea mays) = experiment: Test A postemergence; settings: Zea mays, post-emergence, 240 h
Outline: as §1

[6] = test system: blackgrass (Alopecurus myosuroides); experiment: Test A postemergence; settings: Alopecurus myosuroides, post-emergence, 240 h
Outline: as §1

[7] = test system: pigweed (Amaranthus retroflexus); experiment: Test A postemergence; settings: Amaranthus retroflexus, post-emergence, 240 h
Outline: as §1

[8] = test system: barnyardgrass (Echinochloa crus-galli); experiment: Test A postemergence; settings: Echinochloa crus-galli, post-emergence, 240 h
Outline: as §1

Kochia (Kochia scoparia) [9] = experiment: Test A postemergence; settings: Bassia scoparia, post-emergence, 240 h
Outline: as §1

[10] = test system: ducksalad (Heteranthera limosa); experiment: Test B flooded paddy test; settings: Heteranthera limosa, 250 g ai/ha, Flood; 0 to 100 scale where 0 is no effect and 100 is complete control; read-out: Ducksalad plant response rating
Outline: (§2)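 Evaluation by eye, against controls, occurred 13–15 d post-treatment in a greenhouse, using a 0 (no effect) to 100 (complete control) scale. Application was into the paddy water, 3 cm deep over the soil, on 2-leaf plants.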

rice (Oryra sativa) = experiment: Test B flooded paddy test; settings: Oryza sativa, 250 g ai/ha, Flood; 0 to 100 scale where 0 is no effect and 100 is complete control; read-out: Rice plant response rating
Outline: as §2

[11] = test system: sedge, umbrella (small-flower umbrella sedge, Cyperus difformis); experiment: Test B flooded paddy test; settings: Cyperus difformis, 250 g ai/ha, Flood; 0 to 100 scale where 0 is no effect and 100 is complete control; read-out: Sedge, Umbrella plant response rating
Outline: as §2

[12] = test system: barnyardgrass (Echinochloa crus-galli); experiment: Test B flooded paddy test; settings: Echinochloa crus-galli, 250 g ai/ha, Flood; 0 to 100 scale where 0 is no effect and 100 is complete control; read-out: Barnyardgrass plant response rating
Outline: as §2

[13] = test system: giant foxtail (Setaria faberii); experiment: Test A preemergence; settings: Setaria faberi, pre-emergence, 240 h, 0 to 100 scale where 0 is no effect and 100 is complete control, read-out: Foxtail, Giant plant response rating
Outline: as §1

[14] = test system: ryegrass, Italian (Italian ryegrass, Lolium multiflorum); experiment: Test A preemergence; settings: Lolium multiflorum, pre-emergence, 240 h, 0 to 100 scale where 0 is no effect and 100 is complete control, read-out: Ryegrass, Italian plant response rating
Outline: as §1

[15] = test system: ragweed (common ragweed, Ambrosia elatior); experiment: Test A preemergence; settings: Ambrosia artemisiifolia, pre-emergence, 240 h, 0 to 100 scale where 0 is no effect and 100 is complete control, read-out: Ragweed plant response rating
Outline: as §1

[16] = test system: pigweed (Amaranthus retroflexus); experiment: Test A preemergence; settings: Amaranthus retroflexus, pre-emergence, 240 h, 0 to 100 scale where 0 is no effect and 100 is complete control, read-out: Pigweed plant response rating
[17] = test system: barnyardgrass (Echinochloa crus-galli); experiment: Test A preemergence; settings: Echinochloa crus-galli, pre-emergence, 240 h, 0 to 100 scale where 0 is no effect and 100 is complete control, read-out: Barnyardgrass plant response rating
Outline: as §1

Kochia (Kochia scoparia) [18] = experiment: Test A preemergence; settings: Bassia scoparia, pre-emergence, 240 h, 0 to 100 scale where 0 is no effect and 100 is complete control, read-out: Kochia plant response rating
Outline: as §1

[19] = 125 g ai/ha, preemergence, approx. 10 d

## CN1C[C@H](c2cc(C(F)F)cs2)[C@@H](C(=O)Nc2ccccc2S(C)(=O)=O)C1=O [Compound 1084]
[1]; 125 g ai/ha, postemergence, visual injury on 0 to 100 scale (0 no effect, 100 complete control), approx. 10 d, read-out: Galium plant response rating
  pest or weed control at 125 g/ha: 0%
[1]; Postemergence, 31 g ai/ha, visual injury after approx. 10 d, 0 to 100 scale, 0 no effect, 100 complete control, read-out: Plant response rating, Galium
  pest or weed control at 31 g/ha: 0%
[2]; 125 g ai/ha, postemergence, visual injury on 0 to 100 scale (0 no effect, 100 complete control), approx. 10 d, read-out: Foxtail, Giant plant response rating
  pest or weed control at 125 g/ha: 50%
[2]; Postemergence, 31 g ai/ha, visual injury after approx. 10 d, 0 to 100 scale, 0 no effect, 100 complete control, read-out: Plant response rating, Foxtail, Giant
  pest or weed control at 31 g/ha: 0%
[3]; 125 g ai/ha, postemergence, visual injury on 0 to 100 scale (0 no effect, 100 complete control), approx. 10 d, read-out: Ryegrass, Italian plant response rating
  pest or weed control at 125 g/ha: 0%
[3]; Postemergence, 31 g ai/ha, visual injury after approx. 10 d, 0 to 100 scale, 0 no effect, 100 complete control, read-out: Plant response rating, Ryegrass, Italian
  pest or weed control at 31 g/ha: 0%
[4]; 125 g ai/ha, postemergence, visual injury on 0 to 100 scale (0 no effect, 100 complete control), approx. 10 d, read-out: Wheat plant response rating
  plant injury at 125 g/ha: 20%
[4]; Postemergence, 31 g ai/ha, visual injury after approx. 10 d, 0 to 100 scale, 0 no effect, 100 complete control, read-out: Plant response rating, Wheat
  plant injury at 31 g/ha: 0%
[5]; 125 g ai/ha, postemergence, visual injury on 0 to 100 scale (0 no effect, 100 complete control), approx. 10 d, read-out: Ragweed plant response rating
  pest or weed control at 125 g/ha: 0%
[5]; Postemergence, 31 g ai/ha, visual injury after approx. 10 d, 0 to 100 scale, 0 no effect, 100 complete control, read-out: Plant response rating, Ragweed
  pest or weed control at 31 g/ha: 0%
Corn (Zea mays); 125 g ai/ha, postemergence, visual injury on 0 to 100 scale (0 no effect, 100 complete control), approx. 10 d, read-out: Corn plant response rating
  plant injury at 125 g/ha: 0%
Corn (Zea mays); Postemergence, 31 g ai/ha, visual injury after approx. 10 d, 0 to 100 scale, 0 no effect, 100 complete control
  Corn plant response rating (crop injury, 0 = no effect, 100 = complete kill) at 31 g/ha: 0%
[6]; 125 g ai/ha, postemergence, visual injury on 0 to 100 scale (0 no effect, 100 complete control), approx. 10 d, read-out: Blackgrass plant response rating
  pest or weed control at 125 g/ha: 20%
[6]; Postemergence, 31 g ai/ha, visual injury after approx. 10 d, 0 to 100 scale, 0 no effect, 100 complete control, read-out: Plant response rating, Blackgrass
  pest or weed control at 31 g/ha: 0%
[7]; 125 g ai/ha, postemergence, visual injury on 0 to 100 scale (0 no effect, 100 complete control), approx. 10 d, read-out: Pigweed plant response rating
  pest or weed control at 125 g/ha: 0%
[7]; Postemergence, 31 g ai/ha, visual injury after approx. 10 d, 0 to 100 scale, 0 no effect, 100 complete control, read-out: Plant response rating, Pigweed
  pest or weed control at 31 g/ha: 0%
[8]; 125 g ai/ha, postemergence, visual injury on 0 to 100 scale (0 no effect, 100 complete control), approx. 10 d, read-out: Barnyardgrass plant response rating
  pest or weed control at 125 g/ha: 60%
[8]; Postemergence, 31 g ai/ha, visual injury after approx. 10 d, 0 to 100 scale, 0 no effect, 100 complete control, read-out: Plant response rating, Barnyardgrass
  pest or weed control at 31 g/ha: 10%
Kochia (Kochia scoparia) [9]; 125 g ai/ha, postemergence, visual injury on 0 to 100 scale (0 no effect, 100 complete control), approx. 10 d, read-out: Kochia plant response rating
  pest or weed control at 125 g/ha: 30%
Kochia (Kochia scoparia) [9]; Postemergence, 31 g ai/ha, visual injury after approx. 10 d, 0 to 100 scale, 0 no effect, 100 complete control, read-out: Plant response rating, Kochia
  pest or weed control at 31 g/ha: 0%
[10]
  pest or weed control at 250 g/ha: 100%
Rice (Oryra sativa)
  pest or weed control at 250 g/ha: 20%
[11]
  pest or weed control at 250 g/ha: 0%
[12]
  pest or weed control at 250 g/ha: 75%
[13]; 31 g ai/ha, Preemergence
  pest or weed control at 31 g/ha: 30%
[13]; [19]
  pest or weed control at 125 g/ha: 100%
[14]; 31 g ai/ha, Preemergence
  pest or weed control at 31 g/ha: 0%
[14]; [19]
  pest or weed control at 125 g/ha: 10%
[15]; 31 g ai/ha, Preemergence
  pest or weed control at 31 g/ha: 0%
[15]; [19]
  pest or weed control at 125 g/ha: 10%
[16]; 31 g ai/ha, Preemergence
  pest or weed control at 31 g/ha: 0%
[16]; [19]
  pest or weed control at 125 g/ha: 0%
[17]; 31 g ai/ha, Preemergence
  pest or weed control at 31 g/ha: 0%
[17]; [19]
  pest or weed control at 125 g/ha: 70%
Kochia (Kochia scoparia) [18]; 31 g ai/ha, Preemergence
  pest or weed control at 31 g/ha: 0%
Kochia (Kochia scoparia) [18]; [19]
  pest or weed control at 125 g/ha: 20%
